# In patent US8663620B2, “Murgantiol as a stink bug synergistic attractant for use outdoors” (Sterling International Inc., priority 2011, dated 2014):
# Entries after “also recorded” stand apart in the source; their conditions may differ. Like-named read-outs stand apart in the source and are kept apart here.
# How the values were obtained:
# BMSB = details: cited from earlier work
# A. hilare = details: Aldrich et al. 2007; Khrimian 2005; cited from earlier work
# [1] = tested on: brown marmorated stink bug (BMSB); assay: Field trapping Experiment 1 (Example 1): doses of racemic murgantiol vs standard attractants in Rescue! Stink Bug Traps; format: in vivo, Halyomorpha halys; details: for attraction of BMSB adults (mean numbers captured in baited traps): Pittsburgh, Pa., 14 days in early September, vs blank control, Duncan's test α=0.05; for attraction of BMSB adults (mean numbers captured in baited traps) / dose-response of trap catches: FIG. 2; for dose-response of trap catches: racemic murgantiol 10, 20, 40, 80 mg
# Experimental: (§1) Two field trapping experiments were carried out from early to late September in home gardens/yards in Pittsburgh, Pa. In order to test the potential activity of the Harlequin bug pheromone, murgantiol, as a BMSB outdoor attractant or outdoor synergistic attractant to other known stink bug attractants, commercially available Rescue!® Stink Bug Traps (described in U.S. Pat. No. D645,534; U.S. Pat. No. D645,535; and U.S. patent application Ser. No. 13/331,394, filed Dec. 20, 2011) were used. Traps baited with different tested compounds or combinations were set up in lines, 1-1.5 m above the ground on either tree branches or fences ca. 3-5 m apart between each trap within a set, and at least 50 m between sets. For each trapping experiment, five sets of traps (i.e., five physical replicates of each treatment) were deployed with their initial trap positions within each set being randomized. To minimize positional effects and obtain more replications, stink bug collections and trap re-randomizations were carried out when ≧20 stink bugs were caught in the best traps. Each replicate lasted one to several days depending on stink bug activity. Captured stink bugs were removed from the traps and kept in plastic (polyethylene) zip-bags before returning to the laboratory for recording of the species, gender, and development status (nymphs, adult males/females), and catch. Murgantiol and the known stink bug attractants were released from dispensers [for example, 4 mil polyethylene bags (2.3×5.5 cm) or dispensers described in U.S. patent application Ser. No. 13/206,244, filed Aug. 9, 2011, incorporated herein by reference in its entirety]. Experiment 1 (Example 1) tested different doses of racemic murgantiol (MGT) in comparison with the known standard stink bug attractants [M246DT/M24DD], and the blank control. Trap catch data were converted to proportion (P) of total captured bugs within each replicate. The data were then transformed by arcsin (P)^1/2 to meet the assumptions of normality and homogeneity of variances for ANOVA (analysis of variance). Means were compared by ANOVA followed by the Duncan's multiple range test at α=0.05.
# Euschistus spp. [2] = assay: Outdoor trapping with Rescue! Stink Bug Traps, synergistic attraction; format: in vivo; details: outdoors
# BMSB adults = details: both sexes of adults, overwintering and transition periods; cited from earlier work
# Harlequin bugs = details: insect-produced and synthetic murgantiol; laboratory; cited from earlier work
# [3] = tested on: brown marmorated stink bug (BMSB); assay: Field trapping Experiment 2 (Example 2): attractant formulations with and without racemic murgantiol in Rescue! Stink Bug Traps; format: in vivo, Halyomorpha halys; details: outdoors, September; FIG. 3
# Experimental: as §1, with “Murgantiol and the known stink bug attractants were released from dispensers [for example, 4 mil polyethylene bags (2.3×5.5 cm) or dispensers described in U.S. patent application Ser. No. 13/206,244, filed Aug. 9, 2011, incorporated herein by reference in its entirety]. Experiment 1 (Example 1) tested different doses of racemic murgantiol (MGT) in comparison with the known standard stink bug attractants [M246DT/M24DD], and the blank control. Trap catch data were converted to proportion (P) of total captured bugs within each replicate. The data were then transformed by arcsin (P)^1/2 to meet the assumptions of normality and homogeneity of variances for ANOVA (analysis of variance). Means were compared by ANOVA followed by the Duncan's multiple range test at α=0.05.” left out
# Euschistus spp. [4] = details: seven Euschistus spp.; Aldrich et al. 1991; cited from earlier work
smiles,measurement,setting,value
"CCC\C=C/C=C/C=C/C(=O)OC [M246DT, methyl (2E,4E,6Z)-decatrienoate]",field attraction of BMSB,"BMSB; adults (males and females) and nymphs, Aldrich et al. 2007, Khrimian 2005",field attractant for both adults (males and females) and nymphs
same,attraction of BMSB,"BMSB; late spring and early summer, dispersal (overwintered) adults",only weakly active
same,attraction of BMSB,BMSB; mid-summer and early fall,strongly attractive to both nymphs and adults
same,field attraction of A. hilare,A. hilare,field attractant
"CC(CCC1OC1(C)C)C1C=CC(C)(O)CC1 (racemic) [murgantiol, 4-[3-(3,3-dimethyloxiran-2-yl)-1-methylpropyl]-1-methylcyclohex-2-en-1-ol]",attraction of BMSB adults (mean numbers captured in baited traps),[1]; outdoors,"active as an outdoor attractant; also recorded: comparable, if not more effective in attracting insects; also recorded: outdoor attractant for BMSBs in any dose amount"
same,attraction of BMSB adults (mean numbers captured in baited traps),"[1]; outdoors, listed as MGT-A",strong attraction to BMSBs at levels similar or even higher than the known standard stink bug attractants
same,attraction of BMSB adults (mean numbers captured in baited traps),"[1]; outdoors, listed as MGT-B",strong attraction to BMSBs at levels similar or even higher than the known standard stink bug attractants
same,attraction of BMSB adults (mean numbers captured in baited traps),"[1]; outdoors, listed as MGT-C",strong attraction to BMSBs at levels similar or even higher than the known standard stink bug attractants
same,attraction of BMSB adults (mean numbers captured in baited traps),"[1]; outdoors, listed as MGT-D",strong attraction to BMSBs at levels similar or even higher than the known standard stink bug attractants
same,sexes and stages attracted and captured,"[1]; outdoors, September, nymphs only 5% of total catches",Both sexes of adults (ca. 1:1) and nymphs were attracted and captured
same,dose-response of trap catches,[1],no significant dose-response effects
same,dose-response of trap catches,[1]; listed as MGT-A,as effective as the highest dose
same,synergistic attraction together with known stink bug attractants such as M246DT and M24DD,Euschistus spp. [2],synergistically attract
same,indoor attraction of BMSB,BMSB adults,indoor attractant
same,attraction of Harlequin bugs,Harlequin bugs,attracted sexually mature Harlequin bugs of both sexes
same,effect of adding murgantiol to M246DT/M24DD attractants on BMSB trap catches (synergism),[3],synergistically attract; also recorded: significant increases in attraction; also recorded: strong synergistic effects
"CCCCC/C=C\C=C\C(=O)OC [M24DD, methyl (2E,4Z)-decadienoate]",field attraction of Euschistus spp.,Euschistus spp. [4],aggregation pheromone compound or field attractant
